Assay results taken from PubChem BioAssay (NCI).
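Growth conditions: 96-well plates. Treatment: test compound, 48 hours, 5 concentrations. Analysis: linear interpolation between bracketing concentrations; unreached endpoints set to highest concentration. Abbreviation: GI50, concentration required for 50% inhibition of growth. Definition used: TGI = concentration required for complete inhibition of growth.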

Assays:
Experiment in all cases: DTP human tumour cell line panel, 48 h
NCI-H23 lung = tested on: NCI-H23 lung
NCI-H460 lung = tested on: NCI-H460 lung
NCI-H522 lung = tested on: NCI-H522 lung
NCI/ADR-RES ovarian = tested on: NCI/ADR-RES ovarian
OVCAR-3 ovarian = tested on: OVCAR-3 ovarian
OVCAR-4 ovarian = tested on: OVCAR-4 ovarian
OVCAR-5 ovarian = tested on: OVCAR-5 ovarian
OVCAR-8 ovarian = tested on: OVCAR-8 ovarian
PC-3 prostate = tested on: PC-3 prostate
RPMI-8226 leukemia = tested on: RPMI-8226 leukemia
RXF 393 renal = tested on: RXF 393 renal
SF-268 CNS = tested on: SF-268 CNS
SF-295 CNS = tested on: SF-295 CNS
SF-539 CNS = tested on: SF-539 CNS
SK-MEL-2 melanoma = tested on: SK-MEL-2 melanoma
SK-MEL-28 melanoma = tested on: SK-MEL-28 melanoma
SK-MEL-5 melanoma = tested on: SK-MEL-5 melanoma
SK-OV-3 ovarian = tested on: SK-OV-3 ovarian
SN12C renal = tested on: SN12C renal
SNB-19 CNS = tested on: SNB-19 CNS
SNB-75 CNS = tested on: SNB-75 CNS
SR leukemia = tested on: SR leukemia
SW-620 colon = tested on: SW-620 colon
T-47D breast = tested on: T-47D breast
TK-10 renal = tested on: TK-10 renal
U251 CNS = tested on: U251 CNS
UACC-62 melanoma = tested on: UACC-62 melanoma
UO-31 renal = tested on: UO-31 renal

`COc1ccc([C@H]2C(=O)N(c3cc(OC)c(OC)c(OC)c3)[C@@H]2c2ccc(OC)c(O)c2)cc1` was tested, and the GI50 (NCI-H23 lung) was 37.8 nM, the TGI (NCI-H23 lung) was 72.2 µM and the GI50 (NCI-H460 lung) was 36.5 nM. The TGI (NCI-H460 lung) was 24.8 µM, the GI50 (NCI-H522 lung) was 12.4 nM and the TGI (NCI-H522 lung) was 49.1 nM. The GI50 (NCI/ADR-RES ovarian) was 19.5 nM, the TGI (NCI/ADR-RES ovarian) was 51.3 nM and the GI50 (OVCAR-3 ovarian) was 63.5 nM. For the same compound, the TGI (OVCAR-3 ovarian) was > 100 µM, the GI50 (OVCAR-4 ovarian) was 17.1 µM and the TGI (OVCAR-4 ovarian) was > 100 µM. The GI50 (OVCAR-5 ovarian) was 45.9 nM, the TGI (OVCAR-5 ovarian) was > 100 µM and the GI50 (OVCAR-8 ovarian) was 29.9 nM. For the same compound, the TGI (OVCAR-8 ovarian) was > 100 µM, the GI50 (PC-3 prostate) was 50 nM and the TGI (PC-3 prostate) was > 100 µM. For the same compound, the GI50 (RPMI-8226 leukemia) was 38.7 nM, the TGI (RPMI-8226 leukemia) was 17.3 µM and the GI50 (RXF 393 renal) was 46.7 nM. For the same compound, the TGI (RXF 393 renal) was 41.2 µM, the GI50 (SF-268 CNS) was 1410 nM and the TGI (SF-268 CNS) was > 100 µM. For the same compound, the GI50 (SF-295 CNS) was 29.8 nM, the TGI (SF-295 CNS) was 22.7 µM and the GI50 (SF-539 CNS) was 20.4 nM. For the same compound, the TGI (SF-539 CNS) was 53.7 nM, the GI50 (SK-MEL-2 melanoma) was 50.2 nM and the TGI (SK-MEL-2 melanoma) was > 100 µM. The GI50 (SK-MEL-28 melanoma) was 4.03 µM, the TGI (SK-MEL-28 melanoma) was > 100 µM and the GI50 (SK-MEL-5 melanoma) was 20.2 nM. The TGI (SK-MEL-5 melanoma) was 42.9 nM, the GI50 (SK-OV-3 ovarian) was 42.2 nM and the TGI (SK-OV-3 ovarian) was > 100 µM. For the same compound, the GI50 (SN12C renal) was 43.5 nM, the TGI (SN12C renal) was > 100 µM and the GI50 (SNB-19 CNS) was 45.4 nM. For the same compound, the TGI (SNB-19 CNS) was > 100 µM, the GI50 (SNB-75 CNS) was 861 nM and the TGI (SNB-75 CNS) was > 100 µM. For the same compound, the GI50 (SR leukemia) was 25.8 nM, the TGI (SR leukemia) was > 100 µM and the GI50 (SW-620 colon) was 51.6 nM. For the same compound, the TGI (SW-620 colon) was > 100 µM, the GI50 (T-47D breast) was 27.3 µM and the TGI (T-47D breast) was > 100 µM. The GI50 (TK-10 renal) was 16.2 µM, the TGI (TK-10 renal) was > 100 µM and the GI50 (U251 CNS) was 32.2 nM. For the same compound, the TGI (U251 CNS) was > 100 µM, the GI50 (UACC-62 melanoma) was 44.8 nM and the TGI (UACC-62 melanoma) was 26.7 µM. For the same compound, the GI50 (UO-31 renal) was 72 nM and the TGI (UO-31 renal) was 38.2 µM.
